Experimental findings from PubChem BioAssay AID1996 are described below.

A word on the solubility (kinetic): it is solubility judged after dilution from a stock solution rather than from solid.

Converted amounts (≈) assume the structure as drawn.

The conditions of the data set: buffer; pH 7.4; 200.0 µM.
`COc1ccc(CNC(=O)C2CCCN2C)cc1OC` (stereo not given): the kinetic solubility stood at 37 µg/mL (≈ 133 µM).
`CN1CCN(C(=O)c2cc3cc(Cl)ccc3[nH]2)CC1.Cl`: the kinetic solubility was above 47.1 µg/mL.
Compound `Cc1ccc(CN(C)C(=O)CCc2c[nH]c3ccccc23)o1` registered a solubility (kinetic) of 6.5 µg/mL (≈ 21.9 µM).
With `CC(=O)c1ccc(NC(=O)COC(=O)Cn2cnc3ccccc32)cc1` the figure was above 52.7 µg/mL; with `CC(C)c1ccccc1NC(=S)NCc1nc2ccccc2[nH]1`, above 48.7 µg/mL.
The figure for `CCOCCCNC(=O)C1c2ccccc2Oc2ccccc21` is 13.6 µg/mL (≈ 43.7 µM); for `CCC(c1ccc(C)cc1)N1C(=O)C2C3CCC(O3)C2C1=O` (stereo not given) it is 41.1 µg/mL (≈ 137 µM).
As to `Cc1ccc(S(=O)(=O)N2CCCCC2)cc1NC(=O)CSc1nc(N)cc(=O)[nH]1`, the kinetic solubility is 52.7 µg/mL (≈ 120 µM).
On to `CCCc1nc(SCC(=O)Nc2nccs2)c2ccccc2n1`, for which the kinetic solubility is 0.9 µg/mL (≈ 2.61 µM).
In the case of `Cc1cc(C(=O)Nc2ccc3ccccc3c2)c(C)o1`, the kinetic solubility was 1.8 µg/mL (≈ 6.78 µM).
The figure for `CCOC(=O)CNC(=S)N(Cc1ccccc1)Cc1cccs1` is 19.8 µg/mL (≈ 56.8 µM); for `Cc1ccc(CNC(=S)NCc2ccncc2)cc1` it is 39.7 µg/mL (≈ 146 µM).
For the compound `CC(C)[C@H](NC(=O)c1ccccc1)C(=O)O`, the kinetic solubility is above 33.2 µg/mL.
The figure for `Cc1c(O)ccc(C(=O)CN2CCN(c3ccccc3)CC2)c1O` is 12 µg/mL (≈ 36.8 µM); for `CSC1=C(C#N)C(=O)NC(c2ccccc2O)S1` (stereo not given) it is above 41.8 µg/mL.
With `O=[N+]([O-])C(/C=C(/Cl)[N+](=O)[O-])=C(N1CCCCC1)N1CCCCC1` the figure was 29.1 µg/mL (≈ 84.4 µM); with `COc1ccc(Cl)cc1/C=C/c1ccc2cccc(O)c2n1`, 0.8 µg/mL (≈ 2.57 µM).
The figure for `O=C(O)C(Sc1ccncn1)c1ccccc1` (stereo not given) is 26.4 µg/mL (≈ 107 µM); for `O=C(CSc1cccc2cccnc12)Nc1ccccc1F` it is 7.3 µg/mL (≈ 23.4 µM).
The compound `COc1ccc(C(=O)NC(=O)COC(=O)c2ccc(C)o2)cc1` had a kinetic solubility of 7 µg/mL (≈ 22.1 µM).
The figure for `NC(=[NH2+])SCC1=CCS(=O)(=O)C1.[Br-]` is 39.4 µg/mL; for `Cc1cc(NC(=O)CSc2nnc(-c3ccccc3F)n2N)no1` it is above 52.3 µg/mL; for `COc1ccc(NC(=O)NCCc2ccc(Cl)cc2)cc1OC` it is below 0.4 µg/mL.
The figure for `Cc1cnc(C(=O)OCC(=O)Nc2cc(Cl)ccc2C#N)cn1` is above 49.6 µg/mL; for `Cc1ccc[n+](CC(=O)N2CCCCC2)c1C.[Br-]` it is above 47 µg/mL.
With `CCCn1c(SCC(=O)N(C)C2CCS(=O)(=O)C2)nc2sc3c(c2c1=O)CCC3` (stereo not given) the figure was above 68.3 µg/mL; with `CC(C)c1nc2ccccc2n1CC(O)COC1CCCCC1` (stereo not given), above 47.5 µg/mL.
With `Cc1ccc(SCC(=O)N2CCN(S(=O)(=O)c3cccs3)CC2)cc1`, the solubility (kinetic) was found to be 18.4 µg/mL (≈ 46.4 µM).
The figure for `Cc1cccc(C)c1NC(=O)C1CCN(C(=O)c2cccs2)CC1` is 39.1 µg/mL (≈ 114 µM).
With `C=CCSc1nc2c(c(-c3ccsc3)c1C#N)CN(C)CC2` the figure was 23 µg/mL (≈ 70.2 µM); with `COc1ccccc1N1CCNCC1.Cl`, 28.2 µg/mL; with `Cc1ccc(NC(=O)CCCN2C(=O)NC(C)(C)C2=O)cc1`, 38.7 µg/mL (≈ 128 µM).
For `COc1cc(/C=C/C(=O)OCC(=O)c2ccc[nH]2)cc(OC)c1OC`, the solubility (kinetic) was determined as 9.4 µg/mL (≈ 27.2 µM).
With `Cl.c1cc(CNC2C3CC4CC(C3)CC2C4)ccn1` (stereo not given) the figure was 33.7 µg/mL; with `CC1CCc2c(C(=O)Nc3ccccn3)csc2C1` (stereo not given), 11.6 µg/mL (≈ 42.6 µM).
With `COCCNC(=O)C1Cc2c(ccc3ccccc23)O1` (stereo not given) the figure was above 40.7 µg/mL; with `O=C(NNC(=O)C12CC3CC(CC(C3)C1)C2)c1ccccc1F`, above 47.5 µg/mL; with `COC(=O)c1sc(=S)n(Cc2ccccc2)c1C`, 7.1 µg/mL (≈ 25.4 µM).
The figure for `OCCOCCN1CCN(C2=Nc3ccccc3Sc3ccccc32)CC1` is 49.4 µg/mL (≈ 129 µM).
In turn, `O=C(COc1ccc([N+](=O)[O-])cc1)Nc1ccccc1C(=O)NC1CC1` returned a solubility (kinetic) of 1.3 µg/mL (≈ 3.66 µM).
In the case of `O=C(COc1ccc(F)cc1Cl)NC1CCCCCC1`, the kinetic solubility stood at 28.3 µg/mL (≈ 94.4 µM).
For `O=C(Nc1cccc(C(F)(F)F)c1)Nc1ccon1`, the solubility (kinetic) was found to be 9.9 µg/mL (≈ 36.5 µM).
`COc1cccc(NC(=O)C2CCCN(S(C)(=O)=O)C2)c1` (stereo not given) returned a kinetic solubility above 46.9 µg/mL.
The compound `CCc1ccccc1NC(=O)c1ccc2c(c1)CCN2S(C)(=O)=O` yielded a solubility (kinetic) of 0.8 µg/mL (≈ 2.32 µM).
On to `Cc1cccc(N2CCN(C(=O)c3ccc4c(c3)OCCO4)CC2)c1C`, for which the kinetic solubility was determined as 15.7 µg/mL (≈ 44.5 µM).
With `O=C(CCCn1cnc([N+](=O)[O-])n1)Nc1cccc(O)c1` the figure was above 43.7 µg/mL.
`COc1cccc(C(=O)NCCCNC(=O)c2ccccn2)c1`: the kinetic solubility came out at 43.3 µg/mL (≈ 138 µM).
Consider `N#CC1CN(Cc2ccccc2)CN(Cc2ccccc2)C1`, for which the kinetic solubility worked out at 32.9 µg/mL (≈ 113 µM).
The figure for `Cc1ccc(NC(=O)CN2CCCCCC2)cc1[N+](=O)[O-]` is 1.2 µg/mL (≈ 4.12 µM); for `Cc1ccc(CSC2=Nc3ccccc3C3=NC(=O)CN23)cc1` it is 4.9 µg/mL (≈ 15.2 µM); for `CCN(CC)c1ccc(NC(=O)CN(C)Cc2cccs2)cc1` it is 39.1 µg/mL (≈ 118 µM).
The compound `Cc1cc(C(=O)NCc2ccc3c(c2)OCO3)c(C)o1` registered a kinetic solubility above 41 µg/mL.
The figure for `COc1ccc(CN(C#N)c2nc(C)cc(C)n2)cc1` is 38.5 µg/mL (≈ 143 µM); for `Cc1cccc(NC(=S)N2CCCC2)c1` it is above 33 µg/mL; for `COc1ccc(C(=O)O)cc1S(=O)(=O)NCc1cccnc1` it is above 48.4 µg/mL.
With `CC(C)c1ccc(NC(=O)NCc2ccc3c(c2)OCO3)cc1` the figure was below 0.3 µg/mL; with `CCC1Sc2ccccc2N(CC(=O)NC2CCCCC2)C1=O` (stereo not given), above 49.9 µg/mL; with `CNC(=S)NCc1ccc2[nH]c(C)cc2c1`, above 35 µg/mL.
With `O=C1C2CCCN2C(=S)N1Cc1ccccc1` (stereo not given) the figure was above 36.9 µg/mL; with `O=C(Cc1ccc([N+](=O)[O-])cc1)Nc1cccnc1`, above 38.6 µg/mL; with `CCOc1ccc(NC(=O)c2ccc(-c3csc(C)n3)cc2)cc1`, below 0.4 µg/mL.
Regarding `Cc1nc([N+](=O)[O-])c(C(=O)OCc2ccccc2C#N)n1C`, the kinetic solubility is above 45 µg/mL.
Compound `COc1nccnc1NS(=O)(=O)c1ccc(N)cc1` registered a solubility (kinetic) above 42 µg/mL.
With `CC(C)Sc1nc2c([nH]1)c(=N)ncn2Cc1ccccc1` the figure was above 44.9 µg/mL; with `O=C(CCSCc1ccccc1Cl)NC1CCCCC1`, 8.1 µg/mL (≈ 26 µM); with `O=C(Nc1ccc(Cl)c(Cl)c1)Nc1ccccn1`, below 0.2 µg/mL.
With `Cc1ccc2[nH]cc(CCNC(=O)c3ccco3)c2c1`, the kinetic solubility came out at 38.1 µg/mL (≈ 142 µM).
The figure for `Cc1ccccc1C(=O)N1CCC(C(=O)NC2CCCC2)CC1` is 38.6 µg/mL (≈ 123 µM); for `Cc1cc(=O)oc2c(CN3CCCC3)c(O)c(Cl)cc12` it is above 44.1 µg/mL; for `CCOC(=O)C1(Cc2cccc(Cl)c2)CCCN(CCO)C1` (stereo not given) it is 47.9 µg/mL (≈ 147 µM).
The figure for `CC(C)COc1ccc(Cc2c(O)[nH]c(=S)[nH]c2=O)cc1` is 28.9 µg/mL (≈ 94.3 µM); for `CCCCc1c(C)[nH]c2nc3ccccc3n2c1=O` it is below 0.2 µg/mL; for `CCCC1CC(C(=O)Nc2ccccc2)C(=O)O1` (stereo not given) it is 33 µg/mL (≈ 133 µM).
With `CN(C)c1ccc(NC(=O)c2ccc(N3CCOCC3)nc2)cc1` the figure was 20.4 µg/mL (≈ 62.5 µM).
Turning to `Cc1[nH]c(C)c(C(=O)/C=C/c2ccc([N+](=O)[O-])cc2)c1C`, the kinetic solubility is 2.9 µg/mL (≈ 10.2 µM).
